The text below walks through data of US20160213692A1, “ADVANCED METHOD OF TREATMENT AND MANAGEMENT OF CHRONIC HEPATITIS C INFECTION” (priority 2015, published 2016).

Marks after values point to notes of the source that are not given here.

In series [1] the test system is male Wistar rats. In words: Haematological profile / erythrocyte indices (Sysmex XS 500) of treated rats. The protocol:
(§1) A total of 80 male Wistar rats weighing 250-300 gm were used. All animals received humane care during the study protocol and during sacrifice.
(§2) The study duration was 5 weeks. Peg-INF-α-2a was prepared by diluting the content of a full syringe (180 μg/0.5 ml) in 9.5 ml sterile normal saline to prepare a final volume of 10 ml and the final concentration was 18 μg/ml. Each rat in the ‘P’, ‘PD’, ‘PR’ and ‘PRD’ groups received a weekly subcutaneous injection of 0.33 ml (6 μg/rat) for a total of 4 injections. The drug was prepared fresh on the day of use. […] Cholecalciferol ([…]) was prepared by adding 4 ml to 16 ml saline every morning to form a final concentration of 1000 IU/mL. Each rat in the ‘PD’, ‘PRD’, ‘PR’ and ‘VitD’ groups received 0.5 ml/day (500 IU/day) for the full study duration. Cholecalciferol, and its dose, was chosen over calcitriol, the hormonal form of vitamin D, to avoid the risk of soft tissue calcification (Salum et al, 2012). Following 4 injections, the rats were sacrificed in the fifth week at the time of the 5th injection would have been given. RBV and vitamin D3 were continued till the day before sacrifice.
(§3) All Rats were sacrificed on the same day under anesthesia using diethyl ether (Fisher Scientific UK Ltd, Loughborough, UK) a week after the last injection. 1 ml of blood was collected on EDTA for CBC and 3 ml of blood were collected in plane tube immediately after cutting the vena cava. Blood samples in plane tubes were centrifuged and the serum was stored in −20° C. for routine biochemistry and to measure serum concentrations of 25-OH vitamin D and EPO.
Whole blood samples (1 ml) collected on EDTA were processed on Sysmex XS 500 (Sysmex, IL, USA) for the measurement of hemoglobin concentrations, RBCs count, packed cell volume (PCV), mean corpuscular volume (MCV), mean corpuscular hemoglobin (MCH) an mean corpuscular hemoglobin concentration (MCHC).

Series [2] concerns male Wistar rats. Description: Liver and renal function parameters in serum (Cobas e411) of treated rats. How it is done:
as §1, §2, §3
The quantitative measurement of serum liver enzymes (ALP, ALT and AST), total and indirect bilirubin, creatinine and urea was done using Cobas e411 (Roche Diagnostics International Ltd, Switzerland) according to the manufacturer protocol.

For series [3], the system named is rat red cells. The following applies: in vitro incubation; cited from earlier work.
In series [4] the test system is human red cells. Conditions: in vitro incubation; cited from earlier work.
Series [5] has as its system monkey red cells. The following applies: in vitro incubation; cited from earlier work.
For series [6] the following is noted: male, Wistar, rat, in vivo, 5 weeks. The protocol:
as §1, §2
All Rats were sacrificed on the same day under anesthesia using diethyl ether (Fisher Scientific UK Ltd, Loughborough, UK) a week after the last injection. […]

Where [7] appears, read: whole blood, male Wistar rats, 5 weeks.
The mark [8] stands for this setting: serum, male Wistar rats, 5 weeks.

As for `NC(=O)c1ncn([C@@H]2O[C@H](CO)[C@@H](O)[C@H]2O)n1` [R group, ribavirin], in series [1] (rat, in vivo), the MCH is on record as 17.6 ± 0.7 pg, the MCHC is given as 34.4 ± 0.9^c,e pg/dL, the MCV is reported as 64.3 ± 4.2 fL and the PCV is given as 42.1 ± 2.7%. Besides, the RBCs in series [1] (rat, in vivo) is reported as 7.58 ± 0.7^a,b,c,e ×10^6/μl. The Hb in series [1] (setting [7]) is 13.1 ± 1^a,b,c,e g/dL. In series [2] (rat, in vivo), this compound returned an ALP of 119 ± 9.9 IU/L, an ALT of 66.1 ± 2.6 U/L, an AST of 78.4 ± 3.2 U/L and a Creatinine of 0.22 ± 0.03 mg/dL. Moreover, in series [2] (rat, in vivo), the “Indirect Bilirubin” value came out at 0.17 ± 0.07 mg/dL, the “Total Bilirubin” value worked out at 0.49 ± 0.14 mg/dL and the Urea is recorded as 47.3 ± 5.8 mg/dL. For the same compound, the “initial drug content retained by red cells” value (shortened to “initial drug content retained”) in series [3] is 20%. Moreover, the “initial drug content retained” value in series [4] is given as 45%. Besides, the “initial drug content retained” value in series [5] was 77%. Further, the “25-OH Vitamin D” value in series [6] is listed as 42 ± 10^c,e ng/mL.

As to `C=C1CC[C@H](O)C/C1=C/C=C1\CCC[C@]2(C)[C@@H]([C@H](C)CCCC(C)C)CC[C@@H]12` [VitD group, cholecalciferol], the development of anemia entry in series [1] (addition of cholecalciferol 500 IU/day to Peg-INF-α and/or RBV, rats, 5 weeks) is “prevented the development of anemia”. Moreover, in series [1] (setting [7]), the Hb was 15.1 ± 0.7^d,f g/dL, the MCH was determined as 17.4 ± 0.7 pg, the MCHC is given as 34 ± 0.8^c,e,g pg/dL and the MCV is 61.3 ± 1.8 fL. Also, in series [1] (setting [7]), the PCV is reported as 44.9 ± 1.8% and the RBCs is 8.9 ± 0.5^d,f ×10^6/μl. In series [2] (setting [8]), the ALT came to 66.7 ± 4.2 U/L, the AST was 75.8 ± 4.2 U/L, the Creatinine is given as 0.2 ± 0.06 mg/dL and the “Indirect Bilirubin” value is recorded as 0.15 ± 0.08 mg/dL. In series [2] (setting [8]), the “Total Bilirubin” value worked out at 0.51 ± 0.23 mg/dL and the Urea is recorded as 48.1 ± 5.2 mg/dL. In series [2] (serum, male Wistar rats, 5 weeks, mean ± spread), this compound yielded an ALP of 120.7 ± 12.3 IU/L.
